# Source: patent US20230392126A1, “TISSUE ORGANOIDS” (priority 2016, published 2023)
# Tests used:
# [1] = Acute drug overdose test: cocaine-induced lethality; assay type: in vivo, mouse
# Protocol: For all behavioral experiments except where noted, C57BL/6J mice were used. Roughly equal numbers of adult male and female mice were group-housed until surgery. Mice were maintained under controlled temperature and humidity conditions on a 12 h:12 h light:dark cycle (lights on at 7:00). Water and food were available ad libitum. Mice weighed around 25-30 g at the beginning of the experiments. All procedures followed National Institutes of Health Guide for the Care and Use of Laboratory Animal and were approved by the University of Chicago Institutional Animal Care and Use Committee.
# Drug: Cocaine HCl and methamphetamine HCl (Sigma-Aldrich, Saint Louis, MO) were dissolved in sterile saline and delivered intraperitoneally at appropriates doses in a volume of 10 mL/kg. Ethanol (Sigma-Aldrich, Saint Louis, MO, 95%, density=0.816) was prepared in 20% (v/v) diluted in sterile saline and delivered intraperitoneally at appropriate doses. Vehicle (sterile saline) was intraperitoneally administered at 10 mL/kg as a control.
# Acute drug overdose test: Two weeks after grafting surgery, 4 groups of GhBChE and 4 groups of GWT mice (n=8 each in each group) received i.p. injections of cocaine at […]. As a control, 4 groups of GhBChE and 4 groups of GWT mice (n=8 each) received i.p. injections of methamphetamine (METH) at 34, 68 (LD50), 100, and 160 mg/kg. Two each of GhBChE and GWT mice with CD1 mice as hosts were also used to videotape acute cocaine (80 mg/kg) induced behaviors. Mice were monitored for 2 h following injection and percent of cocaine- and METH-induced lethality was calculated.
# To first determine whether engrafting hBChE-expressing cells protects mice from acute systemic toxicity of cocaine, we delivered different doses of cocaine to grafted mice and calculated the lethality rates of cocaine. […] Parallel testing was conducted to test the toxicity of a related stimulant METH (methamphetamine) in GhBChE and GWT mice.
# [2] = i.p., mice; cited from earlier work
# [3] = tested on: mouse epidermal stem cells; assay: Cell proliferation and differentiation of engineered mouse epidermal cells in vitro (cell cycle FACS, calcium shift western blot); assay type: cell-based
# Protocol: Primary human neonatal epidermal keratinocytes were obtained from Thermo Fischer® (C0015C), and cultured with Epilife® medium (Thermo Fischer, M-EPICF-500) with manufacturer's recommended procedures. Calcium shift was performed to induce differentiation of primary keratinocytes by increasing the calcium concentration in culture media to 1.5 mM.
# Propidium iodide (PI) staining followed by flow cytometry were used to determine the effect of cell cycle profiles. Mouse and human epidermal cells were cultured in two 6 cm cell culture dish for 24 hours, respectively. Cells were trypsinized, and 1×10^5 cells from each dish were collected, followed by one PBS wash. […] After staining, the cells were analyzed immediately using flow cytometer BD FACSCanto™ II (BD Biosciences, San Jose, CA) with an excitation wavelength at 488 nm and emission at 585 nm. DNA content and histograms of cell cycle distribution were analyzed using FlowJo™ software, version 10 (FLOWJO LLC, OR).
# Western blotting was performed as described previously (Blanpain et al.). […] Visualization and quantification was carried out with the LI-COR Odyssey® scanner and software (LI-COR Biosciences).
# Propidium iodide (PI) staining followed by flow cytometry were used to determine the effect of cell cycle profiles. […] DNA content and histograms of cell cycle distribution were analyzed using FlowJo™ software, version 10 (FLOWJO LLC, OR). […]
# [4] = Phenylalanine clearance by PAL-expressing mouse epidermal keratinocytes in vitro; assay type: cell-based
# Text: Therefore, using CRISPR-mediated genome editing with epidermal progenitor cell technology the possibility for treatment of PKU by cutaneous expression of PAL is investigated.
# A complete phenotypic change from brown hair coat to dark black fur is also expected. For tissue enzymatic analysis, PAL activity detection in grafted skin is expected but not in other tissues. PAH activity is absent in the liver of the mutant mice. Female mice are more resistant to PKU therapy. If this is the case for cutaneous gene therapy, female PAH mutant mice are tested to determine whether they require larger skin grafts or more grafts than male mice for correction of hyperphenylalaninemia.
# [5] = PKU mouse model (PAH mutant, BTBR strain) grafted with PAL-expressing cells: plasma phenylalanine, fur color, tissue enzyme activity; assay type: in vivo; settings: PAH mutant mice, ~2 mM plasma phenylalanine
# Text: The mouse model of PKU has been developed by ENU (N-ethyl-N-nitrosourea)-mediated mutagenesis in BTBR strain (Jax strain 002232).
# With establishment of skin engraftment in PAH mutant mice, plasma phenylalanine level are monitored. Three weeks post skin grafting with PAL expressing cells or control cells (BTBR epidermal progenitor cells treated with control vectors), blood samples are collected from the tail clipping biweekly for up to 30 weeks. Plasma is separated by centrifugation. Phenylalanine concentration is determined by established fluorometric protocol. Lowering of phenylalanine level restores melanin biosynthesis, and leads to a change of fur color. Potential alteration in fur coat color is recorded weekly for all the grafted animals. […] Thus, two different cohorts of animals (male and female) are established to test the potential gender-dependent effect of cutaneous gene therapy in vivo.
# At the endpoint of the experiment (30 weeks), grafted animals are euthanized and tissue samples (grafted skin, host skin, and liver) are collected. Presence of enzyme activity in the tissues is determined by PAH and PAL activity assay.
# A complete phenotypic change from brown hair coat to dark black fur is also expected. For tissue enzymatic analysis, PAL activity detection in grafted skin is expected but not in other tissues. PAH activity is absent in the liver of the mutant mice. […]
# [6] = biological target: T1, GLP-1 receptor (Mus musculus, UniProt O35659); settings: mice; cited from earlier work
# T1 construct: host or cells: living mice (endogenous receptor)
# T1 sequence (O35659 22-463): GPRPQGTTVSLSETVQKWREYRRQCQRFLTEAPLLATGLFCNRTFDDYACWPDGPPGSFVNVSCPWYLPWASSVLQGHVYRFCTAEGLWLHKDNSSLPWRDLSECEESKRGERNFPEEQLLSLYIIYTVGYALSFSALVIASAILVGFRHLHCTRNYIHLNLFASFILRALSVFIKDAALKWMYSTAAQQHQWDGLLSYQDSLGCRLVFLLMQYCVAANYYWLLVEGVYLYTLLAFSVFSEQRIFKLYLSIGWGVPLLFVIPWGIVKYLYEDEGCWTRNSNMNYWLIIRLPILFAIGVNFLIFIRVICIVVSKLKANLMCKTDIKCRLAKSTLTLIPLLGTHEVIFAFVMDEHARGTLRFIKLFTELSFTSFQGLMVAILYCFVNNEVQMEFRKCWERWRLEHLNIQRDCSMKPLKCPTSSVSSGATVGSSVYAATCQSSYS
# [7] = tested on: epidermal progenitor cells; assay: Suicide gene-induced cell death in epidermal progenitor cells upon prodrug treatment; assay type: cell-based; settings: ganciclovir and 5-fluorocytosine, respectively; data not shown
# Text: To test this possibility, a Rosa26 targeting vector encoding phenylalanine ammonia lyase (PAL) (SEQ ID NO: 51) together with inducible “suicide” genes HSV-TK (Herpes Simplex Virus Thymidine Kinase) (SEQ ID NO: 52) and yCD (yeast cytosine deaminase) (SEQ ID NO: 53) was used for epidermal progenitor cell transfection.
# [8] = WT GGBP; read-out: glucose binding affinity (Kd); cited from earlier work
compound,measurement,setting,value
COC(=O)[C@H]1[C@@H](OC(=O)c2ccccc2)C[C@@H]2CC[C@H]1N2C [cocaine],lethality,"[1]; 80 mg/kg i.p., control mice grafted with WT epidermal cells (GWT)",roughly 50%
same,lethality,"[1]; 120 mg/kg i.p., GWT mice",100%
same,lethality,"[1]; 160 mg/kg i.p., GWT mice",100%
"CN[C@@H](C)Cc1ccccc1 [METH, methamphetamine]",LD50,[2],68 mg/kg
PAL: Phenylalanine ammonia-lyase (SEQ ID NO: 51) expressed in epidermal keratinocytes,effect of expression on cell proliferation / differentiation in vitro,[3],does not significantly alter cell proliferation or differentiation in vitro
same,degradation of phenylalanine in culture media compared with PAH,"[4]; lentivirus-infected mouse epidermal keratinocytes, preliminary",much faster than cells expressing PAH
same,phenylalanine removal by grafts,"[4]; two 1 cm^2 epidermal grafts, ~2×10^7 metabolically active cells",57 pmol of phenylalanine per day
same,effect on hyperphenylalaninemia,[5],sufficient for a complete reversal of hyperphenylalaninemia
Exendin-4,effect on nicotine-induced behaviours,[6],"attenuates nicotine-induced locomotor stimulation, accumbal dopamine release, and the expression of conditioned place preference in mice"
"HSV-TK: inducible suicide gene, Herpes Simplex Virus Thymidine Kinase (SEQ ID NO: 52), prodrug ganciclovir",cell death upon prodrug treatment,[7],efficiently induced cell death upon treatment with prodrugs
WT (wild type) GGBP: wild type glucose/galactose-binding protein of E. coli periplasm,Kd,[8],200 nM
